Laboratory results taken from the NIST ThermoML archive (doi:10.1021/acs.jced.5b00776).

Conditions: Wilhelmi plate

O [water]
Conditions	surface tension liquid-gas [mN/m]
272.64 K, Metastable liquid	75.78
273.04 K, Metastable liquid	75.71
275.06 K, Liquid	75.41
276.72 K, Liquid	75.17
280.09 K, Liquid	74.69
280.34 K, Liquid	74.65
283.27 K, Liquid	74.23
286.54 K, Liquid	73.74
288.33 K, Liquid	73.46
290.57 K, Liquid	73.12
293.04 K, Liquid	72.74
294.13 K, Liquid	72.58
295.71 K, Liquid	72.33
297.4 K, Liquid	72.07
298.42 K, Liquid	71.91
299.35 K, Liquid	71.77
300.3 K, Liquid	71.62
301.78 K, Liquid	71.39
302.43 K, Liquid	71.28
303.41 K, Liquid	71.13
304.45 K, Liquid	70.96
305.69 K, Liquid	70.76
306.63 K, Liquid	70.61
307.99 K, Liquid	70.39
310.6 K, Liquid	69.97
313.69 K, Liquid	69.47
316.02 K, Liquid	69.07
318.49 K, Liquid	68.66
323.62 K, Liquid	67.79
328.1 K, Liquid	67.03
333.49 K, Liquid	66.1
337.83 K, Liquid	65.34
343.49 K, Liquid	64.33
